Drawing on patent US20040224958A1, “Pyridopyrimidinone derivatives for treatment of neurodegenerative disease” (priority 2000, published 2004), this text covers IC50 for 24 molecules.

One experiment concerns the target cdk2/cyclinE (Homo sapiens, UniProt P24941). Put plainly: Cyclin-Dependent Kinase Assay cdk2/cyclinE. The settings on record: cdk2/E IC50.
In the next experiment the target is cdc2/cyclinB (Homo sapiens, UniProt P06493). Put plainly: Cyclin-Dependent Kinase Assay cdc2/cyclinB.
In a further experiment the target is Cdk5/p25 (Homo sapiens, UniProt Q00535). Briefly: Cyclin-Dependent Kinase 5 High Throughput Screening (cdk5-HTS) Assay. In kind it is biochemical. Conditions: high throughput screen. The procedure:
Cyclin-Dependent Kinase 5 High Throughput Screening (cdk5-HTS) Assay
Enzyme assays for IC50 determinations were performed in 96-Pierce Reacti-Bind™ White Opaque Glutatione Coated Plates (Cat. No. 15240B).
The total volume was 0.100 mL containing a final concentration of 50 mM TRIS (tris[hydroxymethyl]aminomethane) at pH 7.4, 50 mM NaCl, 10 mM MgCl2, 5 mM dithiothreitol, 20 μM ATP containing 16 μCi/mL of Redivue[y33P]ATP (Amersham Pharmacia Biotech Cat. No. AH9968), 1.0 μg/mL Cdk5/p25, 20 μg/mL GST-RbCOOH, and appropriate dilutions of a compound of the present invention. The reaction was started by adding[^33P]ATP, and the plate was shaken for 30 seconds, then incubated at room temperature for 30 minutes. The reaction was terminated by addition of 0.05 mL of 120 mM EDTA. The plate was kept at room temperature for 45 minutes to allow substrate to bind to the walls of the plate. The wells were then washed three times with 0.2 mL of 1×PBS. Once thoroughly dry, 0.140 mL of MicroScint™2O (Packard Bioscience Cat. No. 87-9081) cocktail was added to all wells. The incorporation of ^33P was determined with a beta plate counter (Packard Topcount).

Another experiment has as its target cdk4/D (Homo sapiens, UniProt P11802). Briefly: Cyclin-Dependent Kinase 4 (cdk4) Assay. In kind it is biochemical. The settings on record: read-out: cdk4/D IC50. The procedure: A typical assay, for instance, measures inhibitory activity against the cyclin D dependent kinase 4 enzyme (cdk4/D). […] The cdk4 assay was carried out as follows.
Cyclin-Dependent Kinase 4 (cdk4) Assay
All components except the ATP were added to the wells, and the plate was placed on a plate mixer for 2 minutes. The reaction was started by adding [^32P]ATP and the plate was incubated at 25° C. for 15 minutes. The reaction was terminated by addition of 0.1 mL of 20% trichloroacetic acid (TCA). The plate was kept at 4° C. for at least 1 hour to allow the substrate to precipitate. The wells were then washed five times with 0.2 mL of 10% TCA and ^32P incorporation was determined with a beta plate counter (Wallac Inc., Gaithersburg, Md.).

The next experiment addresses cdk2/cyclinA (Homo sapiens, UniProt P24941). Briefly: Cyclin-Dependent Kinase Assay cdk2/cyclinA. The settings on record: cdk2/A IC50.

SMILES strings stand for the structures.

Sequence of cdk4/D (P11802 whole entry): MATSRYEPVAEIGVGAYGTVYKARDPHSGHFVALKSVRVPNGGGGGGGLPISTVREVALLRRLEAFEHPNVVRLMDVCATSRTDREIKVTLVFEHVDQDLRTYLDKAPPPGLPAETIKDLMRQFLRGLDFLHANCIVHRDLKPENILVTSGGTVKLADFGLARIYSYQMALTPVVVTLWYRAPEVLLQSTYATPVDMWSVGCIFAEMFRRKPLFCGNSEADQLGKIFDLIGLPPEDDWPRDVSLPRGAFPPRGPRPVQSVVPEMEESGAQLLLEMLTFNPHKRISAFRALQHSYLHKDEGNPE
Sequence of cdk4/D (P24385 whole entry, further chain): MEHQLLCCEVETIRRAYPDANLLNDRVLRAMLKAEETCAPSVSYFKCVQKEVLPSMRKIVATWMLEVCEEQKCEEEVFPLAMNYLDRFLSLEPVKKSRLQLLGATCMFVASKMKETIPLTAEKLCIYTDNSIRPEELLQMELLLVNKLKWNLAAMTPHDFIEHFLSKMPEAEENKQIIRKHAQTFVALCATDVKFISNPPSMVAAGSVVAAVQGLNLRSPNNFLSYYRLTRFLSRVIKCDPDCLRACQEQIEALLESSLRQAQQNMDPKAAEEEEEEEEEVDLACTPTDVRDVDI
Sequence of cdc2/cyclinB (P06493 whole entry): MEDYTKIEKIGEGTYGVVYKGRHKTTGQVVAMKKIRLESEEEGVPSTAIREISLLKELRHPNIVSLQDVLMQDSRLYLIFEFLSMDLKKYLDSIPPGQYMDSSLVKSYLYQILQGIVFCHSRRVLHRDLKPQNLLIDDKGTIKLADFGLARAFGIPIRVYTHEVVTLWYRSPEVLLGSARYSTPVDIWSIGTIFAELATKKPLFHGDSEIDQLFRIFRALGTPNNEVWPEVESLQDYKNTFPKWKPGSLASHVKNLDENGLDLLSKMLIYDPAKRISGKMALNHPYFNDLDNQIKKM
Sequence of cdc2/cyclinB (P14635 whole entry, further chain): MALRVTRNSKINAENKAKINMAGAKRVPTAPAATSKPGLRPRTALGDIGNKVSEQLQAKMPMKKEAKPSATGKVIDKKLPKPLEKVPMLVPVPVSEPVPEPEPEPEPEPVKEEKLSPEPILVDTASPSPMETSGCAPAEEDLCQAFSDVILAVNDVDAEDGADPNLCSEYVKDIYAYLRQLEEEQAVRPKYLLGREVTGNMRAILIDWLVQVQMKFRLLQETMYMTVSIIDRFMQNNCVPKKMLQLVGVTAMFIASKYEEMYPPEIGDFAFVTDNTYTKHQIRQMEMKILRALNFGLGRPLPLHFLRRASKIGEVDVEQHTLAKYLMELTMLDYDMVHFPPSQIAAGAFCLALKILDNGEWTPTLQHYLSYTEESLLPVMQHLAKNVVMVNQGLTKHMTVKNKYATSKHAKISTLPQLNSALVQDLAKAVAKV

On to `CCn1c(=O)ccc2cnc(Nc3cc(OC)c(OC)c(OC)c3)nc21` [Example 292, 8-Ethyl-2-(3,4,5-trimethoxy-phenylamino)-8H-pyrido[2,3-d]pyrimidin-7-one], for which the IC50 at cdk2/cyclinE was determined as 1.2 µM; against cdc2/cyclinB, 0.86 µM; on Cdk5/p25, 0.61 µM.

In the case of `CCn1c(=O)ccc2cnc(Nc3cc([N+](=O)[O-])ccc3F)nc21` [Example 297, 8-Ethyl-2-(2-fluoro-5-nitro-phenylamino)-8H-pyrido[2,3-d]pyrimidin-7-one], the IC50 on cdk4/D is 3.3 µM; on cdk2/cyclinE, 2.3 µM; at cdc2/cyclinB it was 3.7 µM; at Cdk5/p25, 0.87 µM.

Regarding `CCn1c(=O)ccc2cnc(Nc3ccc(C#N)c(C#N)c3)nc21` [Example 298, 4-(8-Ethyl-7-oxo-7,8-dihydro-pyrido[2,3-d]pyrimidin-2-ylamino)-phthalonitrile], the IC50 on cdk4/D is 2 µM; against cdk2/cyclinE, 1.4 µM; on cdc2/cyclinB, 1.9 µM; against Cdk5/p25, 0.43 µM.

Take `CCn1c(=O)ccc2cnc(Nc3ccc(C#N)c(NC(C)=O)c3)nc21` [Example 299, N-[2-Cyano-5-(8-ethyl-7-oxo-7,8-dihydro-pyrido[2,3-d]pyrimidin-2-ylamino)-phenyl]-acetamide]: the IC50 at cdk4/D amounted to 1.5 µM; against cdk2/cyclinE, 2.7 µM; against cdc2/cyclinB, 2.9 µM; against Cdk5/p25, 1 µM.

For the molecule `CCCn1c(=O)ccc2cnc(Nc3cc(C(F)(F)F)ccc3F)nc21` [Example 311, 2-(2-Fluoro-5-trifluoromethyl-phenylamino)-8-propyl-8H-pyrido[2,3-d]pyrimidin-7-one], the IC50 on cdk4/D is 3 µM; against cdk2/cyclinE, 1.46 µM; on cdc2/cyclinB, 1.76 µM; at Cdk5/p25 it was 1.16 µM.

As to `CCCn1c(=O)ccc2cnc(Nc3cc(C(F)(F)F)cc(C(F)(F)F)c3)nc21` [Example 315, 2-(3,5-Bis-trifluoromethyl-phenylamino)-8-propyl-8H-pyrido[2,3-d]pyrimidin-7-one], the IC50 came to 2.58 µM on cdk2/cyclinE, 2.19 µM against cdc2/cyclinB and 2.44 µM against Cdk5/p25.

For `CCCn1c(=O)ccc2cnc(Nc3cc(OC)c(OC)c(OC)c3)nc21` [Example 334, 8-Propyl-2-(3,4,5-trimethoxy-phenylamino)-8H-pyrido[2,3-d]pyrimidin-7-one], the IC50 against cdk2/cyclinE turned out to be 0.91 µM; against cdc2/cyclinB, 1.3 µM; against Cdk5/p25, 0.3 µM.

For the molecule `CCCn1c(=O)ccc2cnc(Nc3cc(OC)cc(C(F)(F)F)c3)nc21` [Example 342, 2-(3-Methoxy-5-trifluoromethyl-phenylamino)-8-propyl-8H-pyrido[2,3-d]pyrimidin-7-one], the IC50 at cdk4/D came to 2.2 µM; against cdk2/cyclinE, 0.37 µM; on cdk2/cyclinA, 1.8 µM; at Cdk5/p25 it was 1.4 µM.

As for `CCCn1c(=O)ccc2cnc(Nc3ccc(Cl)c(Cl)c3)nc21` [Example 350, 2-(3,4-Dichloro-phenylamino)-8-propyl-8H-pyrido[2,3-d]pyrimidin-7-one], the IC50 was found to be 1.2 µM against cdk2/cyclinE, 3.1 µM at cdc2/cyclinB and 0.23 µM on Cdk5/p25.

On to `CCCCn1c(=O)ccc2cnc(Nc3cc(C(F)(F)F)ccc3F)nc21` [Example 372, 8-Butyl-2-(2-fluoro-5-trifluoromethyl-phenylamino)-8H-pyrido[2,3-d]pyrimidin-7-one], for which the IC50 against cdk2/cyclinE stood at 1.03 µM; against cdc2/cyclinB, 2.4 µM; against Cdk5/p25, 2.27 µM.

With `CCCCn1c(=O)ccc2cnc(Nc3cc(Cl)cc(Cl)c3)nc21` [Example 391, 8-Butyl-2-(3,5-dichloro-phenylamino)-8H-pyrido[2,3-d]pyrimidin-7-one], the IC50 was found to be 0.515 µM on cdk4/D, 0.065 µM on cdk2/cyclinE, 0.165 µM against cdc2/cyclinB and 0.058 µM against Cdk5/p25.

As to `CC(C)n1c(=O)ccc2cnc(Nc3ccc(F)c(Cl)c3)nc21` [Example 419, 2-(3-Chloro-4-fluoro-phenylamino)-8-isopropyl-8H-pyrido[2,3-d]pyrimidin-7-one], the IC50 on cdk4/D was found to be 0.26 µM; against cdk2/cyclinE, 0.12 µM; at cdc2/cyclinB, 0.14 µM; against Cdk5/p25, 0.033 µM.

For the molecule `CC(C)n1c(=O)ccc2cnc(Nc3cc([N+](=O)[O-])ccc3F)nc21` [Example 420, 2-(2-Fluoro-5-nitro-phenylamino)-8-isopropyl-8H-pyrido[2,3-d]pyrimidin-7-one], the IC50 on cdk4/D turned out to be 1 µM; against cdk2/cyclinE it was 1 µM; on cdc2/cyclinB it was 1.4 µM; at Cdk5/p25, 0.66 µM.

`CC(C)n1c(=O)ccc2cnc(Nc3cc(C(F)(F)F)ccc3F)nc21` [Example 428, 2-(2-Fluoro-5-trifluoromethyl-phenylamino)-8-isopropyl-8H-pyrido[2,3-d]pyrimidin-7-one]: the IC50 turned out to be 2.4 µM on cdk4/D, 2.4 µM against cdk2/cyclinE, 2.6 µM at cdc2/cyclinB and 0.89 µM at Cdk5/p25.

On to `CCC(C)n1c(=O)ccc2cnc(Nc3cc(C(F)(F)F)ccc3F)nc21` (centres unmarked) [Example 466, 8-sec-Butyl-2-(2-fluoro-5-trifluoromethyl-phenylamino)-8H-pyrido[2,3-d]pyrimidin-7-one], for which the IC50 on cdk4/D is 1.5 µM; on cdk2/cyclinE, 1.4 µM; on cdc2/cyclinB it was 1.3 µM; against Cdk5/p25, 0.31 µM.

Consider `CCC(CC)n1c(=O)ccc2cnc(Nc3ccc(F)c(C)c3)nc21` [Example 503, 8-(1-Ethyl-propyl)-2-(4-fluoro-3-methyl-phenylamino)-8H-pyrido[2,3-d]pyrimidin-7-one], for which the IC50 at cdk4/D amounted to 0.17 µM; at cdk2/cyclinE, 0.036 µM; against cdc2/cyclinB it was 0.079 µM; against Cdk5/p25, 0.013 µM.

On to `CCC(CC)n1c(=O)ccc2cnc(Nc3cc([N+](=O)[O-])ccc3F)nc21` [Example 504, 8-(1-Ethyl-propyl)-2-(2-fluoro-5-nitro-phenylamino)-8H-pyrido[2,3-d]pyrimidin-7-one], for which the IC50 on cdk4/D is 0.21 µM; at cdk2/cyclinE it was 0.38 µM; on cdc2/cyclinB, 0.52 µM; against Cdk5/p25 it was 0.37 µM.

With `CCC(CC)n1c(=O)ccc2cnc(Nc3cc(F)c(NC(C)=O)c(Cl)c3)nc21` [Example 514, N-{2-Chloro4-[8-(1-ethyl-propyl)-7-oxo-7,8-dihydro-pyrido[2,3-d]pyrimidin-2-ylamino]-6-fluoro-phenyl}-acetamide], the IC50 at cdk4/D was 0.25 µM; on cdk2/cyclinE, 3.1 µM; at cdc2/cyclinB, 2 µM; at Cdk5/p25, 1.1 µM.

Consider `O=c1ccc2cnc(Nc3ccc(OC(F)(F)F)cc3)nc2n1CC1CC1` [Example 591, 8-Cyclopropylmethyl-2-(4-trifluoromethoxy-phenylamino)-8H-pyrido[2,3-d]pyrimidin-7-one], for which the IC50 at cdk4/D came out at 0.21 µM; against cdk2/cyclinE it was 1.8 µM; at cdc2/cyclinB, 3.9 µM; against Cdk5/p25 it was 0.14 µM.

With `O=c1ccc2cnc(Nc3ccc4[nH]ncc4c3)nc2n1CC(F)(F)F` [Example 594, 2-(1H-Indazol-5-ylamino)-8-(2,2,2-trifluoro-ethyl)-8H-pyrido[2,3-d]pyrimidin-7-one], the results for the IC50 against cdk2/cyclinE, against cdc2/cyclinB and on Cdk5/p25 were 1.67 µM, 1.9 µM and 0.555 µM, respectively.

Regarding `O=c1ccc2cnc(Nc3ccc(O)cc3F)nc2n1CC(F)(F)F` [Example 596, 2-(2-Fluoro-4-hydroxy-phenylamino)-8-(2,2,2-trifluoro-ethyl)-8H-pyrido[2,3-d]pyrimidin-7-one], the IC50 stood at 1.3 µM at cdk2/cyclinE, 1.86 µM on cdc2/cyclinB and 0.72 µM on Cdk5/p25.

On to `O=c1ccc2cnc(Nc3cccc([N+](=O)[O-])c3)nc2n1CC(F)(F)F` [Example 599, 2-(3-Nitro-phenylamino)-8-(2,2,2-trifluoro-ethyl)-8H-pyrido[2,3-d]pyrimidin-7-one], for which the IC50 stood at 1.7 µM at cdk2/cyclinE, 2.35 µM against cdc2/cyclinB and 0.785 µM against Cdk5/p25.

On to `COc1cc(Nc2ncc3ccc(=O)n(CC(F)(F)F)c3n2)cc(C(F)(F)F)c1` [Example 606, 2-(3-Methoxy-5-trifluoromethyl-phenylamino)-8-(2,2,2-trifluoro-ethyl)-8H-pyrido[2,3-d]pyrimidin-7-one], for which the IC50 came to 3.8 µM on cdk4/D, 3.5 µM against cdc2/cyclinB and 1.8 µM at Cdk5/p25.

Regarding `COc1ccc(Nc2ncc3ccc(=O)n(C)c3n2)cc1OC` [Example 617, 2-(3,4-Dimethoxy-phenylamino)-8-methyl-8H-pyrido[2,3-d]pyrimidin-7-one], the IC50 on cdk2/cyclinE is 2.9 µM; against cdc2/cyclinB, 1.7 µM; against Cdk5/p25, 0.595 µM.
